The values that follow come from ChEMBL document CHEMBL1135150, “Vitamin D(3): synthesis of seco C-9,11,21-trisnor-17-methyl-1 alpha, 25-dihydroxyvitamin D(3) analogues” (2002).

Each structure is given as a SMILES string.

The subject of one assay is Mus musculus. Briefly: In vivo calcemic effects was tested in vitamin D-replete normal NMRI mice by daily intraperitoneal injections of 1-alpha,25(OH)2D3. Format: functional.
For assay [1], the target named is T1, Vitamin D3 receptor (Sus scrofa domesticus) (UniProt Q7M3G7).
T1 sequence (whole entry): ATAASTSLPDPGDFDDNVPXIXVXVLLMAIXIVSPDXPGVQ
Briefly: The affinity to the pig intestinal mucosa vitamin D receptor was evaluated in vitro, results expressed as percentage activity at 50% dose response. In kind it is tissue-based.

Assay [2] relates to HL-60. Briefly: In vitro biological evaluation was determined on HL60 cell line, results expressed as percentage activity at 50% dose response. In kind it is functional, Homo sapiens.
A further assay deals with MG-63. Briefly: In vitro biological evaluation was determined on MG-63 cell line, results expressed as percentage activity at 50% dose response. In kind it is functional, Homo sapiens.
The next assay deals with MCF7. Briefly: In vitro biological evaluation was determined on MCF-7 cell line, results expressed as percentage activity at 50% dose response. Format: functional, Homo sapiens.
A further assay deals with Keratinocyte. Briefly: In vitro biological evaluation was determined on Keratinocytes, results expressed as percentage activity at 50% dose response. Format: functional, Homo sapiens.
Assay [3] deals with HL-60. Briefly: In vitro biological evaluation was determined on HL60, results expressed as percentage activity at 50% dose response. Format: functional, Homo sapiens.

In the case of `C=C1/C(=C\C=C2/CCC[C@]3(C)[C@@H]([C@H](C)CCCC(C)(C)O)CC[C@@H]23)C[C@@H](O)C[C@@H]1O` [CALCITRIOL], the Activity (with Mus musculus; in assay [1]; in the assay on HL-60 [2]; in the assay with MG-63; with MCF7; with Keratinocyte) was 100% each time.

On to `CCC(O)(CC)CCCC[C@@]1(C)CC[C@@H](/C=C/C=C2C[C@@H](O)C[C@H](O)C2)C1(C)C`, for which the Activity with Mus musculus is 0.25%; in assay [1], 75%; in the assay with HL-60 [2], 85%; with MG-63, 80%; with MCF7, 100%; with Keratinocyte it was 40%.

As for `CC(C)(O)C#CCC[C@@]1(C)CC[C@@H](/C=C/C=C2C[C@@H](O)C[C@H](O)C2)C1(C)C`, the Activity with Mus musculus is 0.25%; in assay [1], 60%; with HL-60 [2], 60%; with MCF7, 70%; in the assay on Keratinocyte it was 85%.

With `C=C1C(=CC=C[C@@H]2CC[C@](C)(CCCC(F)(F)C(C)(C)O)C2(C)C)C[C@@H](O)C[C@@H]1O`, the Activity is 3% with Mus musculus; 75% in assay [1]; 80% in the assay with HL-60 [2]; 50% with MG-63; 90% in the assay on MCF7; 1350% with Keratinocyte.

Consider `C=C1C(=CC=C[C@@H]2CC[C@](C)(/C=C\CCC(O)(C(F)(F)F)C(F)(F)F)C2(C)C)C[C@@H](O)C[C@@H]1O`, for which the Activity is 13% in the assay on Mus musculus; 80% in assay [1]; 50% with HL-60 [2]; 50% with MG-63; 375% with MCF7; 300% in the assay with Keratinocyte.

`C=C1C(=CC=C[C@@H]2CC[C@](C)(/C=C\CC(F)(F)C(C)(C)O)C2(C)C)C[C@@H](O)C[C@@H]1O`: the Activity with Mus musculus was under 0.1%; in assay [1], 40%; in the assay on HL-60 [2], 20%; in the assay with MG-63, 12%; with MCF7, 70%; in the assay with Keratinocyte, 200%.

Consider `CC(C)(O)C(F)(F)C/C=C\[C@@]1(C)CC[C@@H](/C=C/C=C2C[C@@H](O)C[C@H](O)C2)C1(C)C`, for which the Activity in the assay with Mus musculus was 0.5%; in assay [1], 70%; in the assay with HL-60 [2] it was 20%; with MCF7, 10%; in the assay on Keratinocyte, 60%.

Take `CC1(C)[C@H](/C=C/C=C2C[C@@H](O)C[C@H](O)C2)CC[C@]1(C)CCC#CC(O)(C(F)(F)F)C(F)(F)F`: the Activity is 1% with Mus musculus; 100% in assay [1]; 2000% in the assay on MCF7; 4500% in the assay on Keratinocyte; 300% in the assay with HL-60 [3].

On to `C=C1/C(=C\C=C\[C@@H]2CC[C@](C)(CCC#CC(C)(C)O)C2(C)C)C[C@@H](O)C[C@@H]1O`, for which the Activity with Mus musculus was 0.1%; in assay [1], 9%; in the assay with HL-60 [2] it was 100%; in the assay with MG-63, 50%; in the assay with MCF7, 150%; with Keratinocyte, 400%.

On to `C=C1C(=CC=C[C@@H]2CC[C@](C)(CCCCC(O)(C(F)(F)F)C(F)(F)F)C2(C)C)C[C@@H](O)C[C@@H]1O`, for which the Activity is 10% in the assay with Mus musculus; 80% in assay [1]; 150% in the assay on HL-60 [2]; 200% with MG-63; 1250% with MCF7; 750% with Keratinocyte.

Consider `CC(C)(O)CCCC[C@@]1(C)CC[C@@H](/C=C/C=C2C[C@@H](O)C[C@H](O)C2)C1(C)C`, for which the Activity was 0.25% in the assay on Mus musculus; 40% in assay [1]; 9% with HL-60 [2]; 40% in the assay with MG-63; 30% in the assay on MCF7; 10% in the assay on Keratinocyte.

With `C=C1C(=CC=C[C@@H]2CC[C@](C)(CCCCC(C)(C)O)C2(C)C)C[C@@H](O)C[C@@H]1O`, the Activity in the assay on Mus musculus is under 1%; in assay [1], 30%; with HL-60 [2], 40%; in the assay with MG-63, 60%; with MCF7, 80%; with Keratinocyte, 40%.

As for `C=C1C(=CC=C[C@@H]2CC[C@](C)(CCCCC(O)(CC)CC)C2(C)C)C[C@@H](O)C[C@@H]1O`, the Activity is 5% in the assay with Mus musculus; 80% in assay [1]; 100% in the assay with HL-60 [2]; 200% in the assay on MG-63; 250% with MCF7; 90% in the assay with Keratinocyte.
